Laboratory results published in ChEMBL document CHEMBL4371068, “Potent inhibitors of malarial P. Falciparum protein kinase G: Improving the cell activity of a series of imidazopyridines” (Bioorg Med Chem Lett, 2019).

Test: Apparent permeability of the compound in phosphate buffer saline at 50 to 200 uM after 5 hrs by PAMPA
Assay type: ADME

Row | SMILES | Papp at 5 h, up to 200 µM [×10⁻⁶ cm/s]
1 | Fc1ccc(-c2nc3ccccn3c2-c2ccnc(NC3CCOCC3)n2)cc1 | 14.5
2 | CN(C)CCCNc1nccc(-c2c(-c3ccc(F)cc3)nc3ccccn23)n1 | 8.2
3 | CN1CCC(n2cc(Nc3nccc(-c4c(-c5ccc(F)cc5)nc5ccccn45)n3)cn2)CC1 | 12.4
4 | CN(C)CCNc1ccc2nc(-c3ccc(F)cc3)c(-c3ccnc(N)n3)n2n1 | 1

The remaining lines, values ahead:

Row | Papp at 5 h, up to 200 µM [×10⁻⁶ cm/s] | SMILES
5 | 18.5 | CN(C)Cc1ccc2c(-c3ccnc(N)n3)c(-c3ccc(F)cc3)nn2c1
6 | 3.2 | CN(C)Cc1ccc2c(c1)nc(-c1ccc(F)cc1)n2-c1ccnc(N)n1
7 | 11.8 | CN(C)Cc1ccn2c(-c3ccnc(N)n3)c(-c3ccc(F)cc3)nc2n1
8 | 5.8 | CN(C)Cc1cc2nc(-c3ccc(F)cc3)c(-c3ccnc(N)n3)n2cn1
